Experimental data from patent US20190100534A1, “Cephem Compounds with Latent Reactive Groups” (Gladius Pharmaceuticals, Inc., priority 2017, published 2019).

Tests used:
Assay type in all cases: cell-based
[1] = system: Isogenic E. coli J58 strain carrying SHV-1; test: MIC determination, isogenic E. coli strains; settings: Escherichia coli, 18 h, read-out: Mimimum Inhibitory Concentrations, SHV-1
In short: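 MIC is the lowest compound concentration leaving a transparent well after overnight (18 h) incubation at 37 °C. The test strain was E. coli J53 expressing plasmid-borne SHV-1 beta-lactamase from pBC-SK(+), adjusted to 0.5 McFarland. Compounds were twofold serially diluted, starting at 64 μg/mL, in CAMH broth supplemented with 20 μM apo-transferrin.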

[2] = system: Isogenic E. coli J58 strain carrying VIM-2; test: MIC determination, isogenic E. coli strains; settings: Escherichia coli, 18 h, read-out: Mimimum Inhibitory Concentrations, VIM-2
In short: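 Broth microdilution in cation-adjusted Mueller-Hinton with 20 μM apo-transferrin, compound serially halved from 64 μg/mL, read by eye after 18 h at 37 °C as lowest clear well. Inoculum: VIM-2-expressing E. coli J53 (pBC-SK(+) plasmid), adjusted to 0.5 McFarland.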

[3] = system: Pseudomonas aeruginosa PA-RR-(980151052); test: MIC determination; settings: Pseudomonas aeruginosa; PA-RR-(980151052); CAMH broth, 20 μM Apo-Transferrin, 37° C., 18 hours; read-out: Minimum Inhibitory Concentrations, PA-RR-(980151052)
In short: (§1)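 Overnight (18 h, 37 °C) microdilution assay. Pre-grown LB cultures were brought to 0.08-0.1 OD600 in cation-adjusted Mueller-Hinton broth; wells contained 20 μM apo-transferrin and compound between 64 and 0.125 μg/mL. Lowest clear-well concentration recorded as MIC.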

[4] = system: Pseudomonas aeruginosa PA-RR-(G8062859); test: MIC determination; settings: Pseudomonas aeruginosa; PA-RR-(G8062859); CAMH broth, 20 μM Apo-Transferrin, 37° C., 18 hours; read-out: Minimum Inhibitory Concentrations, PA-RR-(G8062859)
In short: as §1

[5] = system: Pseudomonas aeruginosa PA-RR-(G7305586); test: MIC determination; settings: Pseudomonas aeruginosa; PA-RR-(G7305586); CAMH broth, 20 μM Apo-Transferrin, 37° C., 18 hours; read-out: Minimum Inhibitory Concentrations, PA-RR-(G7305586)
In short: as §1

[6] = system: Pseudomonas aeruginosa PA (RR-2); test: MIC determination; settings: Pseudomonas aeruginosa; PA (RR-2); CAMH broth, 20 μM Apo-Transferrin, 37° C., 18 hours; read-out: Minimum Inhibitory Concentrations, PA (RR-2)
In short: as §1

[7] = system: Pseudomonas aeruginosa PA-RR-(purple Fre D); test: MIC determination; settings: Pseudomonas aeruginosa, CAMH broth, 20 μM Apo-Transferrin, 37° C., 18 hours, read-out: Minimum Inhibitory Concentrations, PA-RR-(purple Fre D)
In short: as §1

[8] = system: Pseudomonas aeruginosa PA (RR-1); test: MIC determination; settings: Pseudomonas aeruginosa; PA (RR-1); CAMH broth, 20 μM Apo-Transferrin, 37° C., 18 hours; read-out: Minimum Inhibitory Concentrations, PA (RR-1)
In short: as §1

[9] = system: Isogenic E. coli J58 strain carrying TEM-26; test: MIC determination, isogenic E. coli strains; settings: Escherichia coli, 18 h, read-out: Mimimum Inhibitory Concentrations, TEM-26
In short: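 E. coli J53 carried a pBC-SK(+) plasmid expressing TEM-26 β-lactamase. Compounds were serially halved from […] in CAMH broth containing 20 μM apo-transferrin, inoculated from a 0.5 McFarland culture and held overnight (18 h, 37° C); MIC read as the lowest concentration without visible growth.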

[10] = system: Isogenic E. coli J58 strain carrying DHA-1; test: MIC determination, isogenic E. coli strains; settings: Escherichia coli, 18 h, read-out: Mimimum Inhibitory Concentrations, DHA-1
In short: (§2)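 MIC read as the lowest compound level giving a transparent well after 18 h at 37° C. Strains: parent E. coli J53 and isogenic transformants expressing plasmid-borne (pBC-SK(+)) beta-lactamases such as DHA-1; inoculum 0.5 McFarland; CAMH broth plus 20 μM apo-transferrin; compound 64 μg/mL downward, 2-fold dilutions.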

E. coli J53 Alone = test: MIC determination, isogenic E. coli strains; settings: for MIC: Escherichia coli, J53ALONE, 18 h, read-out: Mimimum Inhibitory Concentrations, J53 Alone; for Mimimum Inhibitory Concentrations, J53 Alone: Table 4-2, CAMH broth, 20 μM Apo-Transferrin, 37° C., 18 hours
In short: as §2

[11] = system: Isogenic E. coli J58 strain carrying CTX-M-15; test: MIC determination, isogenic E. coli strains; settings: Escherichia coli, 18 h, read-out: Mimimum Inhibitory Concentrations, CTX-M-15
In short: (§3)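 Isogenic E. coli J53 carrying plasmid-encoded CTX-M-14 or CTX-M-15 (ampicillin-selected), standardized to 0.08-0.1 OD600, incubated overnight (18 h, 37° C.) in CAMH broth plus 20 μM apo-transferrin over 2-fold compound dilutions starting at 64 μg/mL. Lowest concentration with no visible growth recorded as MIC.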

[12] = system: Isogenic E. coli J58 strain carrying CTX-M-14; test: MIC determination, isogenic E. coli strains; settings: Escherichia coli, 18 h, read-out: Mimimum Inhibitory Concentrations, CTX-M-14
In short: as §3

[13] = system: Isogenic E. coli J58 strain carrying IMP-1; test: MIC determination, isogenic E. coli strains; settings: Escherichia coli, 18 h, read-out: Mimimum Inhibitory Concentrations, IMP-1
In short: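 Broth microdilution in cation-adjusted Mueller-Hinton broth with 20 μM apo-transferrin, compound serially diluted two-fold from 64 μg/mL, against E. coli J53 carrying plasmid-borne IMP-1. Inoculum adjusted to 0.5 McFarland; plates incubated 18 h at 37° C. MIC taken as lowest concentration giving a clear well.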

[14] = system: Isogenic E. coli J58 strain carrying KPC-2; test: MIC determination, isogenic E. coli strains; settings: Escherichia coli, 18 h, read-out: Mimimum Inhibitory Concentrations, KPC-2
In short: (§4)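 Strain: E. coli J53 electroporated with a pBC-SK(+) plasmid encoding the KPC enzyme, selected on ampicillin. Twofold dilutions ([…]) were made in CAMH broth containing 20 μM apo-transferrin and inoculated at 0.5 McFarland. After overnight (18 h) growth at 37 °C, MIC was read as the lowest concentration with no visible growth.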

[15] = system: Isogenic E. coli J58 strain carrying KPC-3; test: MIC determination, isogenic E. coli strains; settings: Escherichia coli, 18 h, read-out: Mimimum Inhibitory Concentrations, KPC-3
In short: as §4

[16] = system: Isogenic E. coli J58 strain carrying NDM-1; test: MIC determination, isogenic E. coli strains; settings: Escherichia coli, 18 h, read-out: Mimimum Inhibitory Concentrations, NDM-1
In short: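 Broth microdilution was run in cation-adjusted Mueller-Hinton broth supplemented with 20 μM apo-transferrin, using a 64 μg/mL top concentration diluted twofold. The inoculum was NDM-1-expressing E. coli J53 (pBC-SK(+) plasmid) at 0.5 McFarland. After overnight incubation (18 h, 37° C), the lowest compound concentration preventing visible growth was recorded as the MIC.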

Row | SMILES | MIC [1] [µg/mL] | MIC [2] [µg/mL] | MIC [3] [µg/mL] | MIC [4] [µg/mL] | MIC [5] [µg/mL] | MIC [6] [µg/mL] | MIC [7] [µg/mL] | MIC [8] [µg/mL] | MIC [9] [µg/mL] | MIC [10] [µg/mL] | MIC (E. coli J53 Alone) [µg/mL] | Mimimum Inhibitory Concentrations, J53 Alone (E. coli J53 Alone) [microgram/mL] | MIC [11] [µg/mL] | MIC [12] [µg/mL] | MIC [13] [µg/mL] | MIC [14] [µg/mL] | MIC [15] [µg/mL] | MIC [16] [µg/mL]
1 | CC(C)(O/N=C(\C(=O)N[C@@H]1C(=O)N2C(C(=O)O)=C(C=Cc3ccc(C[N+]4(C)Cc5cc(O)c(O)cc5C4)cc3)CS[C@H]12)c1csc(N)n1)C(=O)O (mixture of isomers) [Compound 424, 2-(4-((E/Z)-2-((6R,7R)-7-((Z)-2-(2-aminothiazol-4-yl)-2-(((2-carboxypropan-2-yl)oxy)imino)acetamido)-2-carboxy-8-oxo-5-thia-1-azabicyclo[4.2.0]oct-2-en-3-yl)vinyl)benzyl)-5,6-dihydroxy-2-methylisoindolin-2-ium] | 2 | 2 | 4 | 2 | 8 | 4 | 2 | 4 | 4 | 0.5 | 0.25 | 0.25 | 2 | 1 | > 64 | 32 | 8 | > 64
2 | Cn1c[n+](Cc2ccc(C=CC3=C(C(=O)O)N4C(=O)[C@@H](NC(=O)/C(=N\OC(C)(C)C(=O)O)c5csc(N)n5)[C@H]4SC3)cc2)cc1C(=O)Nc1ccc(O)c(O)c1 (mixture of isomers) [Compound 411, 3-(4-((E/Z)-2-((6R,7R)-7-((Z)-2-(2-aminothiazol-4-yl)-2-(((2-carboxypropan-2-yl)oxy)imino)acetamido)-2-carboxy-8-oxo-5-thia-1-azabicyclo[4.2.0]oct-2-en-3-yl)vinyl)benzyl)-5-((3,4-dihydroxyphenyl)carbamoyl)-1-methyl-1H-imidazol-3-ium] | 4 | 2 | 8 | 2 | 16 | 4 | 2 | 4 | 8 | 1 | 0.5 | 0.5 | 0.5 | 4 | 64 | 32 | 8 | > 64
3 | CC(C)(O/N=C(\C(=O)N[C@@H]1C(=O)N2C(C(=O)O)=C(C=Cc3ccc(C[N+](C)(C)Cc4cc(O)c(O)c(Cl)c4)cc3)CS[C@H]12)c1csc(N)n1)C(=O)O (mixture of isomers) [Compound 436, N-(4-((E/Z)-2-((6R,7R)-7-((Z)-2-(2-aminothiazol-4-yl)-2-(((2-carboxypropan-2-yl)oxy)imino)acetamido)-2-carboxy-8-oxo-5-thia-1-azabicyclo[4.2.0]oct-2-en-3-yl)vinyl)benzyl)-1-(3-chloro-4,5-dihydroxyphenyl)-N,N-dimethylmethanaminium] | 1 | 1 | 4 | 5 | 8 | 4 | 2 | 2 | 2 | 0.25 | 0.13 | 0.13 | 0.5 | 1 | 8 | 64 | 8 | > 64
4 | CC(C)(O/N=C(\C(=O)N[C@@H]1C(=O)N2C(C(=O)O)=C(C=Cc3ccc(C[N+](C)(C)Cc4ccc(O)c(O)c4)cc3)CS[C@H]12)c1csc(N)n1)C(=O)O (mixture of isomers) [Compound 426, N-(4-((E/Z)-2-((6R,7R)-7-((Z)-2-(2-aminothiazol-4-yl)-2-(((2-carboxypropan-2-yl)oxy)imino)acetamido)-2-carboxy-8-oxo-5-thia-1-azabicyclo[4.2.0]oct-2-en-3-yl)vinyl)benzyl)-1-(3,4-dihydroxyphenyl)-N,N-dimethylmethanaminium] | 0.5 | 8 | 4 | 2 | 4 | 2 | 1 | 4 | 8 | 0.5 | 1 | 1 | 0.5 | 0.5 | 32 | 64 | 8 | > 64
5 | CC(C)(O/N=C(\C(=O)N[C@@H]1C(=O)N2C(C(=O)O)=C(C=Cc3ccc(C[N+](C)(C)Cc4ccc(O)c(O)c4Cl)cc3)CS[C@H]12)c1csc(N)n1)C(=O)O (mixture of isomers) [Compound 434, N-(4-((E/Z)-2-((6R,7R)-7-((Z)-2-(2-aminothiazol-4-yl)-2-(((2-carboxypropan-2-yl)oxy)imino)acetamido)-2-carboxy-8-oxo-5-thia-1-azabicyclo[4.2.0]oct-2-en-3-yl)vinyl)benzyl)-1-(2-chloro-3,4-dihydroxyphenyl)-N,N-dimethylmethanaminium] | 1 | 2 | 4 | 2 | 8 | 2 | 2 | 1 | 2 | 1 | 0.25 | 0.25 | 0.5 | 2 | 0.25 | 16 | 64 | > 64
